Laboratory results published in paper PMC7150891, “Mertansine Inhibits mRNA Expression and Enzyme Activities of Cytochrome P450s and Uridine 5′-Diphospho-Glucuronosyltransferases in Human Hepatocytes and Liver Microsomes” (Pharmaceutics, 2020).
Entries after “also recorded” stand apart in the source; their conditions may differ.

Target: T1, UGT1A4 (Homo sapiens, UniProt P22310)
T1 construct: ultrapooled human liver microsomes (0.2 mg/mL); from tissue; host or cells: human liver microsomes (ultrapooled)
T1 sequence (P22310 29-534): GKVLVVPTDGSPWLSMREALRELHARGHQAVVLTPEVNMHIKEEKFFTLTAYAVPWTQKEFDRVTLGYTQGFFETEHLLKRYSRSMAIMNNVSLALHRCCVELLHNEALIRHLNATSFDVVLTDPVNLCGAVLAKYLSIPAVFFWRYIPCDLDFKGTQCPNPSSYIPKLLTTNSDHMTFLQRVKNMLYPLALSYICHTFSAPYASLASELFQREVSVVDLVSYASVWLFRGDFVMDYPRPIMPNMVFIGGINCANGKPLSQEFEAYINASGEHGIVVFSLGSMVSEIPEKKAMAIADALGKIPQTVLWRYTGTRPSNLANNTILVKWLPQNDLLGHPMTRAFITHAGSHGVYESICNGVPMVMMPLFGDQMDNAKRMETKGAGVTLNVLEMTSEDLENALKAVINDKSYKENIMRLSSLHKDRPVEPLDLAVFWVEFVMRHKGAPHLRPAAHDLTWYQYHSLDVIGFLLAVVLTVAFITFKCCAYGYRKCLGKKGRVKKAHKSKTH
Experiment: Inhibition of UGT1A4-catalyzed trifluoperazine N-β-D-glucuronidation in ultrapooled human liver microsomes
Type: in vitro ADME
Protocol: The inhibitory potential of mertansine on UGT1A1, UGT1A3, UGT1A4, UGT1A6, UGT1A9, and UGT2B7 activities was evaluated using liquid chromatography–tandem mass spectrometry (LC-MS/MS) with a cocktail of UGT substrates and ultrapooled human liver microsomes. Each incubation mixture was prepared to a final volume of 100 μL as follows: ultrapooled human liver microsomes (0.2 mg/mL), 5 mM UDPGA, 10 mM magnesium chloride, alamethicin (25 μg/mL), 50 mM Tris buffer (pH 7.4), various concentrations of mertansine in methanol (final concentrations of 0.01–50 μM), and the cocktail sets of UGT enzyme-specific substrates. Two cocktail sets were used: set A contained 0.5 μM SN-38 for UGT1A1, 2 μM chenodeoxycholic acid for UGT1A3, and 0.5 μM trifluoperazine for UGT1A4; and set B contained 1 μM N-acetylserotonin for UGT1A6, 0.2 μM mycophenolic acid for UGT1A9, and 1 μM naloxone for UGT2B7. The reactions were initiated by adding UDPGA and incubated in a shaking water bath for 60 min at 37 °C. […] Next, 50 μL of each supernatant of sets A and B was mixed, and aliquots (5 μL) were analyzed using LC-MS/MS. […]
The LC-MS/MS system was comprised of an Agilent 6495 triple quadrupole mass spectrometer coupled with an Agilent 1290 Infinity system (Agilent Technologies, Wilmington, DE, USA). […] The electrospray ionization (ESI) source settings in both positive and negative ion modes were as follows: gas temperature, 200 °C; gas flow, 14 L/min; nebulizer, 40 psi; sheath gas temperature, 380 °C; sheath gas flow, 11 L/min; capillary voltage, 4500 V; and nozzle voltage, 500 V. Each metabolite was quantified via selected reaction monitoring in the negative ion mode (chenodeoxycholic acid 24-acyl-β-glucuronide, m/z 567.1 to 391.2; mycophenolic acid β-D-glucuronide, m/z 495.0 to 319.0; propofol glucuronide (IS), m/z 353.0 to 177.0) and in the positive ion mode (SN-38 glucuronide, m/z 568.9 to 392.9; trifluoperazine N-β-D-glucuronide, m/z 583.9 to 407.9; N-acetylserotonin β-D-glucuronide, m/z 394.0 to 219.0; naloxone 3-β-D-glucuronide, m/z 503.9 to 309.9; meloxicam (IS), m/z 351.9 to 115.0). […]

Q: How did the “Inhibition Mode, UGT1A4” value (human liver microsomes, Dixon plot) turn out when COc1cc2cc(c1Cl)N(C)C(=O)CC(OC(=O)C(C)N(C)C(=O)CCS)C1(C)OC1C(C)C1CC(O)(NC(=O)O1)C(OC)C=CC=C(C)C2 (stereo not drawn) [mertansine, Mertansine] was run?
A: competitively inhibited; also recorded: competitive inhibitor

Q: And the Ki (human liver microsomes, trifluoperazine 0.2–2 µM)?
A: 21.2 µM

Q: What about the IC50 (ultrapooled human liver microsomes, 0.5 µM trifluoperazine (cocktail)) of the same compound?
A: 23.3 µM
